# Measured values: US12077503B2, “Substituted cyclic amides and their use as herbicides” (FMC CORPORATION, priority 2015, dated 2024)
# Legend:
# Type in all cases: in vivo
# Kochia (Kochia scoparia) [1] = test: Test A preemergence; conditions: Bassia scoparia, pre-emergence, 240 h
# Method in brief: (§1)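 Compounds were formulated in a non-phytotoxic solvent mixture with surfactant and applied as a preemergence directed soil spray after seeding, or sprayed postemergence over plants 2 to 10 cm tall at the one- to two-leaf stage. Evaluation after about 10 d compared treated with untreated controls, using a scale from 0 (no effect) to 100 (complete control).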
# [2] = tested on: barnyardgrass (Echinochloa crus-galli); test: Test A preemergence; conditions: Echinochloa crus-galli, pre-emergence, 240 h
# Method in brief: as §1
# [3] = tested on: giant foxtail (Setaria faberii); test: Test A preemergence; conditions: Setaria faberi, pre-emergence, 240 h
# Method in brief: as §1
# [4] = tested on: pigweed (Amaranthus retroflexus); test: Test A preemergence; conditions: Amaranthus retroflexus, pre-emergence, 240 h
# [5] = tested on: ragweed (common ragweed, Ambrosia elatior); test: Test A preemergence; conditions: Ambrosia artemisiifolia, pre-emergence, 240 h
# Method in brief: as §1
# [6] = tested on: ryegrass, Italian (Italian ryegrass, Lolium multiflorum); test: Test A preemergence; conditions: Lolium multiflorum, pre-emergence, 240 h
# Method in brief: as §1
# [7] = tested on: Galium (catchweed bedstraw, Galium aparine); test: Test A postemergence; conditions: Galium, post-emergence, 240 h, 125 g ai/ha, postemergence; visual injury after approximately 10 d; 0 to 100 scale (0 no effect, 100 complete control); read-out: Plant response rating, Galium
# Method in brief: as §1
# Kochia (Kochia scoparia) [8] = test: Test A postemergence; conditions: Bassia scoparia, post-emergence, 240 h, 125 g ai/ha, postemergence; visual injury after approximately 10 d; 0 to 100 scale (0 no effect, 100 complete control); read-out: Plant response rating, Kochia
# Method in brief: as §1
# [9] = tested on: barnyardgrass (Echinochloa crus-galli); test: Test A postemergence; conditions: Echinochloa crus-galli, post-emergence, 240 h, 125 g ai/ha, postemergence; visual injury after approximately 10 d; 0 to 100 scale (0 no effect, 100 complete control); read-out: Plant response rating, Barnyardgrass
# Method in brief: as §1
# [10] = tested on: blackgrass (Alopecurus myosuroides); test: Test A postemergence; conditions: Alopecurus myosuroides, post-emergence, 240 h, 125 g ai/ha, postemergence; visual injury after approximately 10 d; 0 to 100 scale (0 no effect, 100 complete control); read-out: Plant response rating, Blackgrass
# Method in brief: as §1
# corn (Zea mays) = test: Test A postemergence; conditions: Zea mays, post-emergence, 240 h, 125 g ai/ha, postemergence; visual injury after approximately 10 d; 0 to 100 scale (0 no effect, 100 complete control)
# Method in brief: as §1
# [11] = tested on: giant foxtail (Setaria faberii); test: Test A postemergence; conditions: Setaria faberi, post-emergence, 240 h, 125 g ai/ha, postemergence; visual injury after approximately 10 d; 0 to 100 scale (0 no effect, 100 complete control); read-out: Plant response rating, Foxtail, Giant
# Method in brief: as §1
# [12] = tested on: pigweed (Amaranthus retroflexus); test: Test A postemergence; conditions: Amaranthus retroflexus, post-emergence, 240 h, 125 g ai/ha, postemergence; visual injury after approximately 10 d; 0 to 100 scale (0 no effect, 100 complete control); read-out: Plant response rating, Pigweed
# Method in brief: as §1
# [13] = tested on: ragweed (common ragweed, Ambrosia elatior); test: Test A postemergence; conditions: Ambrosia artemisiifolia, post-emergence, 240 h, 125 g ai/ha, postemergence; visual injury after approximately 10 d; 0 to 100 scale (0 no effect, 100 complete control); read-out: Plant response rating, Ragweed
# Method in brief: as §1
# [14] = tested on: ryegrass, Italian (Italian ryegrass, Lolium multiflorum); test: Test A postemergence; conditions: Lolium multiflorum, post-emergence, 240 h, 125 g ai/ha, postemergence; visual injury after approximately 10 d; 0 to 100 scale (0 no effect, 100 complete control); read-out: Plant response rating, Ryegrass, Italian
# Method in brief: as §1
smiles,measurement,setting,value
Cc1cc([C@H]2CNC(=O)[C@@H]2C(=O)Nc2ccc(F)cc2F)ccc1Cl [Compound 791],pest or weed control at 125 g/ha,"Kochia (Kochia scoparia) [1]; 125 g ai/ha, preemergence, visual rating after approx. 10 d, 0 to 100 scale where 0 is no effect and 100 is complete control, read-out: Plant response rating, Kochia",50%
same,pest or weed control at 500 g/ha,"Kochia (Kochia scoparia) [1]; 500 g ai/ha, Preemergence, visual injury vs untreated controls after approximately 10 d, read-out: Kochia plant response rating (0 to 100 scale where 0 is no effect and 100 is complete control)",60%
same,pest or weed control at 125 g/ha,"[2]; 125 g ai/ha, preemergence, visual rating after approx. 10 d, 0 to 100 scale where 0 is no effect and 100 is complete control, read-out: Plant response rating, Barnyardgrass",90%
same,pest or weed control at 500 g/ha,"[2]; 500 g ai/ha, Preemergence, visual injury vs untreated controls after approximately 10 d, read-out: Barnyardgrass plant response rating (0 to 100 scale where 0 is no effect and 100 is complete control)",90%
same,pest or weed control at 125 g/ha,"[3]; 125 g ai/ha, preemergence, visual rating after approx. 10 d, 0 to 100 scale where 0 is no effect and 100 is complete control, read-out: Plant response rating, Foxtail, Giant",50%
same,pest or weed control at 500 g/ha,"[3]; 500 g ai/ha, Preemergence, visual injury vs untreated controls after approximately 10 d, read-out: Foxtail, Giant plant response rating (0 to 100 scale where 0 is no effect and 100 is complete control)",90%
same,pest or weed control at 125 g/ha,"[4]; 125 g ai/ha, preemergence, visual rating after approx. 10 d, 0 to 100 scale where 0 is no effect and 100 is complete control, read-out: Plant response rating, Pigweed",0%
same,pest or weed control at 500 g/ha,"[4]; 500 g ai/ha, Preemergence, visual injury vs untreated controls after approximately 10 d, read-out: Pigweed plant response rating (0 to 100 scale where 0 is no effect and 100 is complete control)",0%
same,pest or weed control at 125 g/ha,"[5]; 125 g ai/ha, preemergence, visual rating after approx. 10 d, 0 to 100 scale where 0 is no effect and 100 is complete control, read-out: Plant response rating, Ragweed",0%
same,pest or weed control at 500 g/ha,"[5]; 500 g ai/ha, Preemergence, visual injury vs untreated controls after approximately 10 d, read-out: Ragweed plant response rating (0 to 100 scale where 0 is no effect and 100 is complete control)",40%
same,pest or weed control at 125 g/ha,"[6]; 125 g ai/ha, preemergence, visual rating after approx. 10 d, 0 to 100 scale where 0 is no effect and 100 is complete control, read-out: Plant response rating, Ryegrass, Italian",0%
same,pest or weed control at 500 g/ha,"[6]; 500 g ai/ha, Preemergence, visual injury vs untreated controls after approximately 10 d, read-out: Ryegrass, Italian plant response rating (0 to 100 scale where 0 is no effect and 100 is complete control)",20%
same,pest or weed control at 125 g/ha,[7],60%
same,pest or weed control at 125 g/ha,Kochia (Kochia scoparia) [8],20%
same,pest or weed control at 125 g/ha,[9],60%
same,pest or weed control at 125 g/ha,[10],0%
same,"Corn plant response rating (crop injury, 0 = no effect, 100 = complete kill) at 125 g/ha",corn (Zea mays),0%
same,pest or weed control at 125 g/ha,[11],30%
same,pest or weed control at 125 g/ha,[12],0%
same,pest or weed control at 125 g/ha,[13],0%
same,pest or weed control at 125 g/ha,[14],0%
